In paper PMC1660542, “Structure-based discovery of inhibitors of the YycG histidine kinase: New chemical leads to combat Staphylococcus epidermidis infections” (BMC Microbiology, 2006):
Values after ≈ are worked out from the molar mass of the structure shown. Like-named read-outs stand apart in the source and are kept apart here.

How the values were obtained:
[1] = Cytotoxicity on Vero cell (MTT, Cell Proliferation Kit I); assay type: cell-based, African Green-monkey; settings: African green monkey, Vero cells, highest concentration tested 200 μM
Method: Cytotoxicity of the antibacterial compounds on cultured Vero cell was measured by using the Cell Proliferation Kit I (MTT) (Roche, Indianapolis, USA) according to the manufacturer's protocol. Addition of DMSO (1%) in the medium produced a slight cytotoxicity on Vero cell, which could easily be corrected for. Each assay was performed in quadruplicate and repeated three times. The results were converted to percentage of the control (cells only treated with 1% DMSO) and CC50 (concentrations that produce a 50% cytotoxicity effect on Vero cell) was calculated by the Origin v7.0 software (OriginLab, Northampton, USA). Hemolytic activities of the compounds were determined by using healthy human erythrocytes. The erythrocytes were washed three times in sterile saline and resuspended to 5% prior to the assay. […] Cells without compound treatment and cells with 1% Triton-100 treatment were used as 0% and 100% hemolysis controls, respectively. The cell suspensions were incubated for 1 hour at 37°C and centrifuged at 1000×g for 10 min. Volumes of 100 μl supernatants were transferred to another sterile plate and hemoglobin release from the cells was determined at 570 nm. […] The hemolysis assays were repeated twice.

[2] = test system: S. epidermidis ATCC12228; experiment: MIC assay (broth dilution in tubes, CLSI); assay type: cell-based, Staphylococcus epidermidis; settings: for MIC: Staphylococcus epidermidis
Text: (§1) Staphylococcus epidermidis ATCC12228 and RP62A strains were purchased from the American Type Culture Collection (ATCC, Manassas, USA). Staphylococcus aureus ATCC29213, Escherichia coli ATCC25922 and Pseudomonas aeruginosa ATCC27853 were kindly provided by Dr. Bijie Hu at Zhongshan Hospital (Shanghai, China). S. epidermidis strains se527, se886, se847, seG203, Streptococcus pyogenes strain 144, and Streptococcus mutans strain 128 were all clinical isolates from Zhongshan Hospital and Huashan Hospital (Shanghai, China). If not stated otherwise, S. epidermidis and S. aureus strains were grown at 37°C in tryptic soy broth (TSB, Oxoid) containing 0.25% glucose, E. coli and P. aeruginosa strains were grown at 37°C in Luria-Bertani (LB, Oxoid).
(§2) MIC assays for the antibacterial activities of the compounds were performed according to the broth micro-dilution (in tubes) method of the Clinical and Laboratory Standards Institute (CLSI) of America. The Minimal Bactericidal Concentration (MBC) was obtained by subculturing 100 μl from each negative (no visible bacterial growth) tube from the MIC assay, onto substance-free Mueller-Hinton agar plates. The plates were incubated at 37°C for 24 hours, and the MBC was defined as the lowest concentration of substance which produced subcultures growing no more than five colonies on each plate.

[3] = test system: S. mutans 128; experiment: MIC assay (broth dilution in tubes, CLSI); assay type: cell-based, Streptococcus mutans; settings: Streptococcus mutans; S. mutans 128; read-out: Minimal inhibitory concentration (MIC)
Text: as §1, §2

[4] = target: T1, YycG' protein (Staphylococcus epidermidis, UniProt Q8CU87); experiment: Compound-YycG' protein binding assay (SPR, Biacore 3000); settings: SPR sensorgram shape
T1 construct: of YycG (370aa to 610aa) was amplified by PCR; His-tag (pET28a) (N); made in house; host or cells: E. coli BL21 (pET28a, pETYycG')
T1 sequence (Q8CU87 370-610): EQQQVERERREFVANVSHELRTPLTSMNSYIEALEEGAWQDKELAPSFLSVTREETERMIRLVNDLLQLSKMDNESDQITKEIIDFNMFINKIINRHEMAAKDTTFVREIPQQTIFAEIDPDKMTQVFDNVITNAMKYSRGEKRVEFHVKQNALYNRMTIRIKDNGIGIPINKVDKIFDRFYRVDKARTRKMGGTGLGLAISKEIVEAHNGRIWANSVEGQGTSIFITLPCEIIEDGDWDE
Text: The YycG' fragment containing the cytoplasmic signal domains (the HATPase_c and HisKA domain, see Figure 1A) of YycG (370aa to 610aa) was amplified by PCR (with the chromosomal DNA of S. epidermidis ATCC12228 as the template, and (5' […] 3') and (5' […] 3') as the primers. Subsequently, the fragment was digested with BamHI and XholI (TAKARA, Japan) and ligated into the corresponding sites of pET28a (Promega, Madison, USA) to obtain pETYycG'. The expressed YycG' protein was purified with the ProBond™ Purification System (Invitrogen, California, USA), according to the manufacturer's protocol.
The in vitro binding affinities of the inhibitor compounds to the YycG' protein was determined using surface plasmon resonance (SPR) biosensor technology on the dual flow cell Biacore 3000 instrument (Biacore AB, Uppsala, Sweden) with a similar method as described in our previous study. Immobilization of the YycG' protein to the hydrophilic carboxymethylated dextran matrix of the sensor chip CM5 (Biacore) was carried out by the standard primary amine coupling reaction. […] The equilibrium constants (KD) evaluating the protein-ligand binding affinity were determined by the steady state or the kinetic state affinity fitting model encoded in the Biacore analysis software.

[5] = test system: S. epidermidis RP62A; experiment: MIC assay (broth dilution in tubes, CLSI); assay type: cell-based; settings: Staphylococcus epidermidis; S. epidermidis RP62A (biofilm-forming strain); read-out: Minimal inhibitory concentration (MIC)
Text: as §1, §2

[6] = test system: SrrB'; experiment: Inhibition of SrrB' autophosphorylation (Kinase-Glo); assay type: biochemical, S. epidermidis; settings: compound 50 μM, 4 μg protein, 3 μM ATP

With `Cc1ccc(NC(=O)CN2C(=O)S/C(=C\c3ccc(OCc4cccc(C(O)O)c4)cc3)C2=O)cc1` [Compound 7] the CC50 [1] was greater than 200 µM, the “Antibacterial effectiveness” value ([2]; ATCC12228 versus RP62A) was “only effective against the non-biofilm-forming strain ATCC12228” and the MIC ([2]; ATCC12228, Table 2, as tested on S. epidermidis ATCC 12228, read-out: MICs) was 0.2 µM (≈ 0.101 µg/mL). For the same molecule, the MIC ([2]; S. epidermidis ATCC12228 (non-biofilm-forming strain), read-out: Minimal inhibitory concentration (MIC)) was 0.2 µM (≈ 0.101 µg/mL), the MIC [3] was greater than 200 µM and the “Association/dissociation pattern in SPR” value [4] was “slow association and slow dissociation”. For the same molecule, the MIC [5] was greater than 200 µM and the “Inhibition of SrrB' phosphorylation” value [6] was 2%.
